Experimental data from ChEMBL document CHEMBL1127220, “3-hydroxy-3-cyclobutene-1,2-dione: Application of novel carboxylic acid bioisostere to an in-vivo active non-tetrazole angiotensin-II antagonist” (Bioorg Med Chem Lett, 1993).

Tested on: Rattus norvegicus
Experiment: Maximum % change of AII-supported portion of mean arterial pressure at 3 mg/kg, i.d.
Type: functional, Artery
Conditions: route intraduodenal

In the case of O=c1c(O)c(-c2ccccc2-c2ccc(CNc3nc(C(F)(F)F)nc4c3CCCC4)cc2)c1=O, the Change is reported as -52%.

Work on O=S(=O)(Nc1ccccc1-c1ccc(CNc2nc(C(F)(F)F)nc3c2CCCC3)cc1)C(F)(F)F yielded a Change of -31%.

In the case of O=C(O)c1ccccc1-c1ccc(CNc2nc(C(F)(F)F)nc3c2CCCC3)cc1, the Change is reported as -62%.

In the case of FC(F)(F)c1nc2c(c(NCc3ccc(-c4ccccc4-c4nn[nH]n4)cc3)n1)CCCC2, the Change is reported as -75%.

CCCCc1nc(Cl)c(CO)n1Cc1ccc(-c2ccccc2-c2nnn[nH]2)cc1 [LOSARTAN] showed a Change of -72%.
